According to patent US10444228B2, “Method of screening a candidate compound for inducing bile canalicular function disorders” (Biopredic International, priority 2014, dated 2019):

How the values were obtained:
Type in all cases: cell-based, human
[1] = test system: phosphorylated myosin light chain (P-MYL9); experiment: Western blotting of phosphorylated myosin light chain; details: for P-myosin (P-MYL9) level by western blotting: Example 2, after 1 hour
Method: Accumulation of phosphorylated light chain myosin was evidenced by western blotting technique in using the (P)-MYl2 antibody. Control cells, 2h-CPZ treated cells and 2h-y27632-treated cells were compared. Cell lysates were prepared.
Accumulation of the phosphorylated myosin light chain was performed by western blotting using p-Myl antibody.

[2] = test system: differentiated HepaRG cells (bile canalicular lumen); experiment: Bile canaliculi lumen morphology by F-actin (phalloidin) / CDFDA imaging; details: for induction of cholestasis (phenotype with swollen lumen) / change of biliary lumen (constriction or swelling): Example 2; for induction of cholestasis (phenotype with swollen lumen): HepaRG cells; for change of biliary lumen (constriction or swelling) / change of bile canaliculus lumen (constriction or swelling): differentiated HepaRG cells; for change of biliary lumen (constriction or swelling): F-actin phalloidin and CDFDA staining; for change of bile canaliculus lumen (constriction or swelling): Example 1, 2 h exposure, F-actin phalloidin staining
Method: Two week DMSO-treated HepaRG cultures were exposed to 50 μM CPZ for 2 h and analyzed at different times during exposure. Constriction was evidenced by F-actin staining using phalloidin.
Comparison of the cytoskeleton organization of control cells versus CPZ and Y27632 treated cultures for 2 h. Fibers of F-actin accumulated at the biliary were labelling by phalloidin and counterstaining of nuclei was performed by Hoechst staining.
ii)—Analysis of the F-actin organization and biliary lumen changes using phalloidin and fluorescent CDFDA staining. After exposure to the candidate compounds, cells were washed twice, fixed with Paraformaldehyde (4%) fixative for 20 min, washed and stained with phalloidin for 10 min. For CDFDA staining, details are provided below.
Images obtained on microscope were used for calculating the size of the biliary lumen after treatment. Appropriate algorithm has been developed for quantification using Cellomics equipment.

ZO-1 = experiment: Immunolocalization of junctional protein ZO-1; details: treated HepaRG cultures
HepaRG cells = experiment: Accumulation of labelled taurocholate in cells including canaliculi space; details: increased concentrations, compared to control
Text: The data also provides information related to junctional complex organization and the role of metalloproteinases in controlling permeability.

Rho-kinase = Rho-kinase activity (Merck-Millipore kit) in treated cell lysates; details: differentiated HepaRG cells, 2 h, 1-50 μM
Method: Differentiated HepaRG cells were exposed to increased doses of CPZ (from 1-50 μM) for 2 h and Rho-kinase activity was measured (kit Merck-Millipore) according to manufacturer. Untreated cells and cells exposed to the Rho-kinase inhibitor Y27632 (10 μM) were used for controls.

[3] = test system: HepaRG cells (canalicular efflux); experiment: Efflux of [3H]-taurocholate
Method: Efflux of Taurocholate (TA). Cells were first exposed to [3H]-TA for 30 min, then washed with PBS and incubated with or without CPZ at different time points (from 0 to 6 hours) in a standard buffer with Ca2+ and Mg2+. After the incubation time, cells were washed with PBS and incubated for 5 min with a Ca2+ and Mg2+− free buffer in order to disrupt the canalicular tight junctions. Then they were scraped in 0.1 N NaOH; the remaining radiolabeled substrate was measured through scintillation counting to determinate TA efflux. To discriminate between basolateral and canalicular efflux, cells were incubated in parallel in either standard or Ca2+ and Mg2+-free buffer for 30 minutes after TA uptake before measuring the remaining radiolabeled TA. Canalicular efflux was calculated using this equation: Canalicular efflux: Radioactivity in efflux mediumCa2+ and Mg2+ free buffer—Radioactivity in efflux medium Standard buffer. Differentiated cells were exposed or not to CPZ (50 μM for 2 h) before radiolabelled TA addition.

[4] = test system: differentiated HepaRG cells (canalicular clearance); experiment: Biliary clearance activity with CDFDA marker compound; details: versus control cells
Method: The first step was incubation with the marker compound. CDFDA was preferentially used. After washing, differentiated cells plated in wells from 24 well-plates, were washed with HBSS buffer twice and incubated with 250 μl of CDFDA solution prepared at the final concentration of 3 μM in HBSS buffer containing Ca++ buffer (pH 7.4). After 30 min cells were washed with the same buffer. […] Quantification of the fluorescent dye into the medium is performed. A comparative evolution was established between control (untreated) and CPZ- and EF-treated cells. […] Calculation of the amount of released fluorescent dye molecules was performed by spectrometry and the canalicular clearance efficiency (CCE) was determined per time unit.

[5] = test system: differentiated HepaRG cells (canalicular clearance); experiment: Biliary clearance with Rhodamin 123 marker compound
Method: Another assay was performed with Rhodamin 123 as marker compound.

| induction of cholestasis (phenotype with swollen lumen) [2] | Compound | P-myosin (P-MYL9) level by western blotting [1] | change of biliary lumen (constriction or swelling) [2] | distribution of ZO-1 at the biliary pole (ZO-1) | Rho-kinase activity (Rho-kinase) | change of bile canaliculus lumen (constriction or swelling) [2] | further results |
| --- | --- | --- | --- | --- | --- | --- | --- |
| – | CC(=O)/C(C)=N/O [BDM] | inhibition of P-myosin phosphorylation | – | – | – | – | – |
| inducing cholestasis | O=S(=O)(c1cccc2cnccc12)N1CCCNCC1 [Fasudil] | – | relaxation/swelling | appears normal | – | – | accumulation of labelled taurocholate in cells including canaliculi space (HepaRG cells): abnormal accumulation of labelled taurocholate; accumulation of labelled taurocholate in cells including canaliculi space (HepaRG cells; listed as fasudil): highest values |
| – | C=CC[C@@H]1/C=C(\C)C[C@H](C)C[C@H](OC)[C@H]2O[C@@](O)(C(=O)C(=O)N3CCCC[C@H]3C(=O)O[C@H](/C(C)=C/[C@@H]3CC[C@@H](O)[C@H](OC)C3)[C@H](C)[C@@H](O)CC1=O)[C@H](C)C[C@@H]2OC [Fk, Tacrolimus] | – | – | – | activate the Rho-kinase activity | inducing lumen constriction | – |
| – | COc1ccccc1Oc1c(NS(=O)(=O)c2ccc(C(C)(C)C)cc2)nc(-c2ncccn2)nc1OCCO [bosentan] | – | abnormal and prolonged canalicular lumen swelling | – | – | – | – |
| – | C[C@@H](N)[C@H]1CC[C@H](C(=O)Nc2ccncc2)CC1 [Y27632] | inhibition of P-myosin phosphorylation | swelling | – | – | swelling/relaxation | taurocholate efflux with Rho-kinase inhibitor added to CPZ ([3]; in presence of CPZ): recovery of taurocholate efflux activity; clearance of CDFDA dye out of the canalicular space [4]: delay in biliary clearance; clearance of CDFDA dye out of the canalicular space ([4]; listed as EF): delay in the clearance of dye; clearance of Rhodamin 123 dye [5]: delay; accumulation of labelled taurocholate in cells including canaliculi space (HepaRG cells): abnormal accumulation of labelled taurocholate |
| – | CN(C)CCCN1c2ccccc2Sc2ccc(Cl)cc21 [CPZ, chlorpromazine] | accumulation of P-myosin | lumen constriction | appears normal | dose-dependent activation of Rho-kinase | Constriction of canaliculus lumen | taurocholate efflux ([3]; CPZ 50 μM): decrease of taurocholate efflux; change of bile canaliculus lumen (constriction or swelling) ([2]; listed as chlorpromazine): constriction of the canaliculus lumen; change of biliary lumen (constriction or swelling) ([2]; listed as chlorpromazine): abnormal and permanent lumen constriction; myosin-light chain phosphorylation (immunoblotting) ([1]; Example 1, 2 h treated HepaRG cells): accumulation of myosin-light chain phosphorylation; clearance of CDFDA dye out of the canalicular space [4]: delay in the clearance of dye; clearance of CDFDA dye out of the canalicular space ([4]; listed as chlorpromazine): delay of clearance; clearance of Rhodamin 123 dye [5]: delay |
| – | Cyclosporin A [CsA] | accumulation of P-myosin | lumen constriction | – | activate the Rho-kinase activity | inducing lumen constriction | change of biliary lumen (constriction or swelling) ([2]; listed as cyclosporine A): constriction |
| inducing cholestasis | C[C@H](CCC(=O)O)[C@H]1CC[C@H]2[C@@H]3CC[C@@H]4C[C@H](O)CC[C@]4(C)[C@H]3C[C@H](O)[C@]12C [DCA, Deoxycholic acid] | – | – | – | – | – | – |

| Compound | induction of cholestasis (phenotype with swollen lumen) [2] | P-myosin (P-MYL9) level by western blotting [1] | change of biliary lumen (constriction or swelling) [2] | distribution of ZO-1 at the biliary pole (ZO-1) | Rho-kinase activity (Rho-kinase) | change of bile canaliculus lumen (constriction or swelling) [2] | further results |
| --- | --- | --- | --- | --- | --- | --- | --- |
| S=C=Nc1cccc2ccccc12 [ANIT] | inducing cholestasis | – | relaxation/swelling | appears normal | activate the Rho-kinase activity | inducing lumen constriction | – |
